Data taken from patent publication US6602896B1, “p38MAPK inhibitor and uses thereof” (The Board of Trustees of the University of Arkansas, priority 1999, dated 2003).
Entries after “also recorded” stand apart in the source; their conditions may differ.

Legend:
LDL receptor expression = assay: Northern blotting of LDL receptor mRNA in HepG2 cells; format: cell-based, human
Method: 5×10^5 cells were plated on day 0. On day 2, cells were refed with fresh medium. On day. 4, cells were either left untreated (0) or treated for the indicated times with SB202190 (2.5 μM) in medium containing 0.5% FBS. Total RNA was isolated and subjected to Northern blotting to determine amounts of LDL receptor, squalene synthase (SS) genes, and actin mRNAs. Autoradiographs were quantitated densitometrically. LDL receptor mRNA levels were normalized to actin mRNA levels. In the bottom panel, results are expressed as the fold induction by SB 202190 as compared with uninduced cells (set at 1). Values obtained are the averages of three separate experiments, with the standard deviations shown.
HepG2 cells were grown as described in FIG. 1. On day 4, medium was changed to either 10% LPDS alone or 10% LPDS supplemented with 25-hydroxycholesterol (2 μg/ml) and cholesterol (10 μg/ml), and after 2 hours, cells were treated with indicated concentrations of SB202190 for an additional 4 hours. Levels of LDL receptor and SS mRNAs were determined by Northern analysis and densitometry as described previously. RNA levels were normalized by comparison with levels of actin. Values obtained from cells cultured in the absence of sterols and SB202190 were set at 1. Values shown are the average of two different experiments.
Total RNA was subjected to Northern blot analysis, and the filter was hybridized with a ^32P-labeled LDL receptor probe. Values shown are the averages of two different experiments. […] Values obtained from the control cells grown in the absence of SB202190 or PD98059 were arbitrarily set at 1.
HepG2 cells were grown as described in FIG. 1. On day 4, cells cultured for 1 h in 0.5% FBS containing different amounts of cycloheximide (1 μg/ml, 2 μg/ml, and 5 μg/ml) were then incubated with SB202190 (2.5 μM) for an additional 4 h. LDL receptor and actin mRNA levels were analyzed by Northern blotting of total RNA. Values obtained from cells with no additions were arbitrarily set at 1. […] Results shown are representative of one experiment.
In FIG. 8A, HepG2 cells were pretreated for 30 minutes with the indicated concentration of the above inhibitors and then treated with […] SB202190 for an additional 4 hours. Total RNA was subjected to Northern blotting for measurement of LDL receptor mRNA levels.
(§1) Human hepatoma cell line HepG2 and its derivative HepG2-ΔRaf-1:ER cell line that stably expresses the ΔRaf-1:ER chimera were maintained as monolayer cultures in a humidified 5% CO2 atmosphere at 37° C. in Eagle's minimum essential medium (EMEM) (Bio Whittaker, Md.) supplemented with 10% fetal bovine serum (FBS) (Life Technologies Inc.), 2 mM L-glutamine, 20 units/ml penicillin and 20 μg/ml streptomycin sulphate.
Total RNA was isolated using TRIzol, and Northern blotting was done essentially as described earlier (43, 44). Briefly, 20 μg total cellular RNA was fractionated on 1% formaldehyde agarose gel and transferred to Zeta Probe membrane by capillary blotting. RNA blots were hybridized with LDL receptor and squalene synthase specific single-stranded M13 probes labeled with [α-^32P ]dCTP. Hybridized filters were washed and exposed to Kodak X-ray film. The relative intensities of specific bands were determined densitometrically within the linear range of the film on a model 300A laser densitometer (Molecular Dyanamics, Calif.) with Image Quant software. LDL receptor mRNA was normalized to squalene synthase (SS) (included in this study) or to α-actin (data not shown) mRNA level, and data for each point were plotted as the percentage of LDL receptor mRNA as compared to controls. […]

p42/44^MAPK [1] = assay: Immunoblot of phospho-p42/44MAPK in HepG2 cells; format: cell-based, human; details: SB202190 2.5 μM
Method: (§2) 2×10^5 cells were grown and treated as described in FIG. 1. After the indicated times, equal amounts of cell lysates were blotted with anti-phospho-p42/44^MAPK antibody, phosphorylation-independent p42/44^MAPK antibody, anti-phospho p46/54^JNK antibody, anti-phospho-MEK-1/2, or phosphorylation-independent MKP-1.
HepG2 cells were cultured in the absence or presence of 1 μM staurosporine or 5 μM PD98059 for 30 min. SB202190 (2.5 μM) was then added to the cells for 4 h, cell lysate was subjected to immunoblotting to measure the phosphorylation levels of p42/44^MAPK and MEK-1/2.
as §1
Proteins were fractionated by SDS-PAGE with an 10% acrylamide separation gel, and the separated proteins were transferred to nitrocellulose, and processed as described previously (43, 44). Briefly, membranes were incubated in 20 mM Tris-HCl, pH 7.6, 137 mM NaCl, 0.2% v/v Tween-20 (Tris/NaCl/Tween-20) with 5% w/v non-fat dried milk for 1 h, washed in Tris/NaCl/Tween-20 (3×5 min), and incubated for 1 h with primary antibody in Tris/NaCl/Tween-20 containing 1% milk at room temperature for non phospho-specific antibodies and overnight at 4° C. for phospho-specific antibodies. The following dilutions were used for individual antibodies against different proteins: p42/44^MAPK (1:1600); phosphop-42/44^MAPK (1:1000); phosphop-46/54^JNK (1:1000); phospho-p38^MAPK (1:1600); phospho-MEK-1/2 (1:1000); MKP-1 (1:1500). After further washing in Tris/NaCl/Tween-20, membranes were incubated for 1 h with horseradish peroxidase-linked anti-IgG secondary antibody (Bio-Rad, diluted 1:5000), and immunoreactive proteins were detected by ECL as described by the supplier. Quantitative analyses of protein levels were performed by densitometric scanning of the autoradiograms, and are representative of 3 or more independent experiments.
HepG2 cells were incubated with SB202190, and the activity of p42/44^MAPK and p46/54^JNK was determined by immunoblot analysis with antibodies that recognized the activated phosphorylated forms of these kinases in cell extracts obtained at different times.

MEK-1/2 = assay: Immunoblot of phospho-MEK-1/2 in HepG2 cells; format: cell-based, human; details: SB202190 2.5 μM
Method: as §2
HepG2 cells were cultured in the absence or presence of 1 μM staurosporine or 5 μM PD98059 for 30 min. SB202190 (2.5 μM) was then added to the cells for 4 h, cell lysate was subjected to immunoblotting to measure the phosphorylation levels of p42/44^MAPK and MEK-1/2. […]
Proteins were fractionated by SDS-PAGE with an 10% acrylamide separation gel, and the separated proteins were transferred to nitrocellulose, and processed as described previously (43, 44). […] After further washing in Tris/NaCl/Tween-20, membranes were incubated for 1 h with horseradish peroxidase-linked anti-IgG secondary antibody (Bio-Rad, diluted 1:5000), and immunoreactive proteins were detected by ECL as described by the supplier. Quantitative analyses of protein levels were performed by densitometric scanning of the autoradiograms, and are representative of 3 or more independent experiments.

[2] = tested on: p38^MAPK α- and β-isoforms; details: cited from earlier work
p42/44^MAPK [3] = details: even at higher concentrations (100 μM); cited from earlier work

Oc1ccc(-c2nc(-c3ccc(F)cc3)c(-c3ccncc3)[nH]2)cc1 [SB202190, 4-(4-Fluorophenyl)-2-(4-hydroxyphenyl)-5-(4-pyridyl) 1H-imidazole]
LDL receptor expression in the presence of sterols (LDL receptor expression; HepG2, 10% LPDS with 25-hydroxycholesterol (2 μg/ml) and cholesterol (10 μg/ml), SB202190 4 hours): slight increase in the suppressed levels of LDL receptor | most effective concentration for LDL receptor induction (LDL receptor expression; HepG2 cells): 2.5 µM | time after which plateau of LDL receptor expression was reached (LDL receptor expression; HepG2 cells, SB202190 2.5 μM): 8 h | time at which a significant increase in LDL receptor expression was apparent (LDL receptor expression; HepG2 cells, SB202190 2.5 μM): 4 h | induction of LDL receptor expression (LDL receptor expression; HepG2 cells, SB202190 alone): 6-8 fold | induction of LDL receptor expression (Northern blotting) (LDL receptor expression; HepG2 cells, inhibitor alone, 0.5% FBS): induces LDL receptor expression in a time-dependent manner | activation of p42/44MAPK (phosphorylation) (p42/44^MAPK [1]): delayed and prolonged activation | effect on p42/44MAPK protein levels (p42/44^MAPK [1]): no effect on p42/44^MAPK protein levels | time of maximal p42/44MAPK activation after stimulation (p42/44^MAPK [1]): 4 to 8 h | time of weak p42/44MAPK activation after treatment (p42/44^MAPK [1]): 1 h | time until which activated p42/44MAPK remained elevated (p42/44^MAPK [1]; 24 hours was maximum time point measured): ≥ 24 h | kinetics of MEK-1/2 phosphorylation (MEK-1/2): paralleled the appearance of p42/44^MAPK | inhibition of p38MAPK α- and β-isoforms [2]: selectively inhibit both p38^MAPK α- and β-isoforms; also recorded: inhibited | effect on p42/44MAPK (p42/44^MAPK [3]): without effect
